Laboratory results from ChEMBL document CHEMBL1909046, “DrugMatrix in vitro pharmacology data”.

Legend:
[1] = target: Insulin receptor (Rattus norvegicus, UniProt P15127); type: cell membranes, Wistar, Liver, Membrane; note: in other assays of this panel Not Active means under 50% inhibition at 10 µM
[2] = target: cGMP-specific 3',5'-cyclic phosphodiesterase (Homo sapiens, UniProt O76074); assay: DRUGMATRIX: Phosphodiesterase PDE5 enzyme inhibition (substrate: [3H]cGMP + cGMP); type: tissue-based, Platelet; conditions: platelet; Not Active = under 50% inhibition at 10 µM
[3] = target: 5-hydroxytryptamine receptor 4 (Cavia porcellus, UniProt O70528); type: cell membranes, Dunkin-Hartley, Striatum, Membrane; note: in other assays of this panel Not Active means under 50% inhibition at 10 µM
Sequence of 5-hydroxytryptamine receptor 4 (O70528 whole entry): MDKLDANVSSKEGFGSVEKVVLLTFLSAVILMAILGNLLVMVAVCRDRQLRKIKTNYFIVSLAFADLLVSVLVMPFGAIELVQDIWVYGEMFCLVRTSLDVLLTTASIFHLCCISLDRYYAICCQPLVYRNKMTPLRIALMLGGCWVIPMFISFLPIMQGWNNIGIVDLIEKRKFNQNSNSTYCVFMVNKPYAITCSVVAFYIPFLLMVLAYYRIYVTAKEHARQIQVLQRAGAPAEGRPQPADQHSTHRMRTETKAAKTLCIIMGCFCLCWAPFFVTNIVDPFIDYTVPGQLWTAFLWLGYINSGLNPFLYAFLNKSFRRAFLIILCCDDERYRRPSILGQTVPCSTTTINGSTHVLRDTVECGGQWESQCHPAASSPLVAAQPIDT

[4] = target: D(1A) dopamine receptor (Homo sapiens, UniProt P21728); assay: DRUGMATRIX: Dopamine D1 radioligand binding (ligand: [3H] SCH-23390); type: cell membranes, CHO, Membrane; conditions: cho; Not Active = under 50% inhibition at 10 µM
Sequence of D(1A) dopamine receptor (P21728 whole entry): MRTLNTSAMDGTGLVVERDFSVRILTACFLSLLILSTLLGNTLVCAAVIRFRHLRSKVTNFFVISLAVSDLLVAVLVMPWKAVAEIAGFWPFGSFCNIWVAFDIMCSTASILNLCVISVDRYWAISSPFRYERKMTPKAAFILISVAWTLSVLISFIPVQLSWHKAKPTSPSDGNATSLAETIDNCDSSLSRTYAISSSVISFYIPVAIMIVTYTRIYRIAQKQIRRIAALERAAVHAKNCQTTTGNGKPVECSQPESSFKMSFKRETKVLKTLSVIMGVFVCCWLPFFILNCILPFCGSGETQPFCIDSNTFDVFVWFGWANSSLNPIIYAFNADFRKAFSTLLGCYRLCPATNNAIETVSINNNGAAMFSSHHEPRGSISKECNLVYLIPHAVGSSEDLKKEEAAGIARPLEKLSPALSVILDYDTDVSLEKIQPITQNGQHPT

[5] = DRUGMATRIX: Phorbol Ester radioligand binding (ligand: [3H] PDBu); type: cell membranes, Mus musculus, ICR, Brain, Membrane; conditions: Not Active = under 50% inhibition at 10 µM
[6] = DRUGMATRIX: Sodium/nucleoside co-transporter radioligand binding (ligand: nitrobenzylthioinosine); type: cell membranes, Cavia porcellus, Dunkin-Hartley, Cerebral cortex, Membrane; conditions: Not Active = under 50% inhibition at 10 µM
[7] = DRUGMATRIX: Serotonin (5-Hydroxytryptamine) 5-HT3 radioligand binding (ligand: [3H] GR-65630); type: cell membranes, Membrane; conditions: hek293; Not Active = under 50% inhibition at 10 µM
[8] = DRUGMATRIX: GABAA, Muscimol, Central radioligand binding (ligand: [3H] Muscimol); type: cell membranes, Rattus norvegicus, Wistar, Brain, Membrane; conditions: Not Active = under 50% inhibition at 10 µM
[9] = DRUGMATRIX: Glutamate, NMDA, Phencyclidine radioligand binding (ligand: [3H] TCP); type: cell membranes, Rattus norvegicus, Wistar, Cerebral cortex, Membrane; conditions: Not Active = under 50% inhibition at 10 µM
[10] = target: T1, Neutrophil elastase (Homo sapiens, UniProt P08246); type: tissue-based;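 note: inhibition of neutrophil elastase enzyme activity, measured with a p-nitroanilide-linked peptide substrate; in other assays of this panel Not Active means under 50% inhibition at 10 µM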
T1 sequence (P08246 whole entry): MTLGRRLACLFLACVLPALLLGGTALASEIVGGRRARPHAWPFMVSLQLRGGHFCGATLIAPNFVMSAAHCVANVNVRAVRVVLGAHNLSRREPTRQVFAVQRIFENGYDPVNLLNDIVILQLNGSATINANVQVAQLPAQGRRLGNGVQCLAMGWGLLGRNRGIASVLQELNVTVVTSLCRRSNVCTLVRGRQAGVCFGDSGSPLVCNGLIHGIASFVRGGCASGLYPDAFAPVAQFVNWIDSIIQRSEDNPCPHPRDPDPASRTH

[11] = target: Mitogen-activated protein kinase 14 (Homo sapiens, UniProt Q16539); set-up: species or system Escherichia coli;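 note: inhibition of p38alpha enzyme activity in a biochemical kinase assay, with myelin basic protein serving as substrate; in other assays of this panel Not Active means under 50% inhibition at 10 µM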
Sequence of Mitogen-activated protein kinase 14 (Q16539 whole entry): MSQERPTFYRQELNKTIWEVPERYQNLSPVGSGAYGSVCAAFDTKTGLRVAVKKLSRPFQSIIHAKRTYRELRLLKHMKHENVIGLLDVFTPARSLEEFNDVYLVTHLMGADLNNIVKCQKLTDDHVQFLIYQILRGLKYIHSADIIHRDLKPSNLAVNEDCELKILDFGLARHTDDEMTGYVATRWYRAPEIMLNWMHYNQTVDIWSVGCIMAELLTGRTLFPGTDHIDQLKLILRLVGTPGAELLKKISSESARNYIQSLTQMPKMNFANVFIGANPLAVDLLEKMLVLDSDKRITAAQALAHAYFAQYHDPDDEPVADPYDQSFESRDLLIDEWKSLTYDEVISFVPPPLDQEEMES

[12] = target: Mitogen-activated protein kinase 1 (Homo sapiens, UniProt P28482); assay: DRUGMATRIX: Protein Serine/Threonine Kinase, ERK2 enzyme inhibition (substrate: Myelin Basic Protein); set-up: species or system Escherichia coli; conditions: Not Active = under 50% inhibition at 10 µM
Sequence of Mitogen-activated protein kinase 1 (P28482 whole entry): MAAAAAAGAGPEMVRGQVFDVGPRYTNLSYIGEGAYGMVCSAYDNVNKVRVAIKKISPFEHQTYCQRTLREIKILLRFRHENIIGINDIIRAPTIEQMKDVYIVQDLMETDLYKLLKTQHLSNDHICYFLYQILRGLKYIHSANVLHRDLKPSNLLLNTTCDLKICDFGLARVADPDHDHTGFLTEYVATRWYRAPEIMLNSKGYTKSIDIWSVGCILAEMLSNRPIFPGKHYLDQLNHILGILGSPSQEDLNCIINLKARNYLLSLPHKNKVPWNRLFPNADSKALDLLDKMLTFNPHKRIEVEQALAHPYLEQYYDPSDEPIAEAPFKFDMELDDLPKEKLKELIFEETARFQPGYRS

[13] = target: T2, C-X-C chemokine receptor type 1 (Homo sapiens, UniProt P25024); note: in other assays of this panel Not Active means under 50% inhibition at 10 µM
T2 sequence (P25024 whole entry): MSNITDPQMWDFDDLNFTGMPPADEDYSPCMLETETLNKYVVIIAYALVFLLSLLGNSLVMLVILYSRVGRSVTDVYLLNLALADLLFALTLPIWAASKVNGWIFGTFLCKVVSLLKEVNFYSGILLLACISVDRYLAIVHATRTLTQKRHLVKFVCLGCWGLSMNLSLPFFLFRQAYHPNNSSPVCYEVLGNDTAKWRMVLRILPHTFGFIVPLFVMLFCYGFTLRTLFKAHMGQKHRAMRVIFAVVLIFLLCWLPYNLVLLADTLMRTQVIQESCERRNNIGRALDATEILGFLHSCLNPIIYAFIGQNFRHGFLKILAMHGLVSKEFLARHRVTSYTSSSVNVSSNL

[14] = target: T3, Calcitonin receptor (Homo sapiens, UniProt P30988); type: cell membranes, Membrane; conditions: t47d; note: in other assays of this panel Not Active means under 50% inhibition at 10 µM
T3 sequence (P30988 whole entry): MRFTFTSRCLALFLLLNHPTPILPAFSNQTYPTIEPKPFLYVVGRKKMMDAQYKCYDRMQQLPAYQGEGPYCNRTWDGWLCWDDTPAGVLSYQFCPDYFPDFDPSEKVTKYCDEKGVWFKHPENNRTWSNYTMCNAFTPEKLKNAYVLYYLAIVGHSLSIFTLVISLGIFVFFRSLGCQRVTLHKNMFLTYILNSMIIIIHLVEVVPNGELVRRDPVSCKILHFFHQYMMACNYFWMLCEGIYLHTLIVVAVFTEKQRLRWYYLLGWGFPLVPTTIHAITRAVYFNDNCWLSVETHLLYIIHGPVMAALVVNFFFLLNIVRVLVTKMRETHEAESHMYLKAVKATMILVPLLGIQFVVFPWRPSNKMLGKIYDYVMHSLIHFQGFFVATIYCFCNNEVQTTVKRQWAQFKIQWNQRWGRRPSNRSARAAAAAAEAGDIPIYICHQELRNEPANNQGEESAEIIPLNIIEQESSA

[15] = target: T4, Muscarinic acetylcholine receptor M4 (Homo sapiens, UniProt P08173); type: cell membranes, CHO-K1, Membrane; conditions: cho-k1; note: in other assays of this panel Not Active means under 50% inhibition at 10 µM
T4 sequence (P08173 whole entry): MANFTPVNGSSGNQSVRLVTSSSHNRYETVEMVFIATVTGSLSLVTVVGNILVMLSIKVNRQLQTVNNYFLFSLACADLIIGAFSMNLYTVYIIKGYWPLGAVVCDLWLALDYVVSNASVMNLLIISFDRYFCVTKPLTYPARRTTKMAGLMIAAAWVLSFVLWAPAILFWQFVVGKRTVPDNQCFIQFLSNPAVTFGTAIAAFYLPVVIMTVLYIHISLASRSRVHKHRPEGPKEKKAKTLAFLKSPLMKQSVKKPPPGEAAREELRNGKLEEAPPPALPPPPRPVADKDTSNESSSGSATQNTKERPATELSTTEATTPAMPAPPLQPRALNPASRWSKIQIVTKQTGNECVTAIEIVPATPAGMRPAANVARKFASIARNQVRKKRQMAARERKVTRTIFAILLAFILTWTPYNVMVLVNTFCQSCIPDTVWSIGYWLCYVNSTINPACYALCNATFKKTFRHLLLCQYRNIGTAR

[16] = target: Sodium-dependent dopamine transporter (Homo sapiens, UniProt Q01959); assay: DRUGMATRIX: Dopamine Transporter radioligand binding (ligand: [125I] RTI-55); type: cell membranes, CHO-K1, Membrane; conditions: cho-k1; Not Active = under 50% inhibition at 10 µM
Sequence of Sodium-dependent dopamine transporter (Q01959 whole entry): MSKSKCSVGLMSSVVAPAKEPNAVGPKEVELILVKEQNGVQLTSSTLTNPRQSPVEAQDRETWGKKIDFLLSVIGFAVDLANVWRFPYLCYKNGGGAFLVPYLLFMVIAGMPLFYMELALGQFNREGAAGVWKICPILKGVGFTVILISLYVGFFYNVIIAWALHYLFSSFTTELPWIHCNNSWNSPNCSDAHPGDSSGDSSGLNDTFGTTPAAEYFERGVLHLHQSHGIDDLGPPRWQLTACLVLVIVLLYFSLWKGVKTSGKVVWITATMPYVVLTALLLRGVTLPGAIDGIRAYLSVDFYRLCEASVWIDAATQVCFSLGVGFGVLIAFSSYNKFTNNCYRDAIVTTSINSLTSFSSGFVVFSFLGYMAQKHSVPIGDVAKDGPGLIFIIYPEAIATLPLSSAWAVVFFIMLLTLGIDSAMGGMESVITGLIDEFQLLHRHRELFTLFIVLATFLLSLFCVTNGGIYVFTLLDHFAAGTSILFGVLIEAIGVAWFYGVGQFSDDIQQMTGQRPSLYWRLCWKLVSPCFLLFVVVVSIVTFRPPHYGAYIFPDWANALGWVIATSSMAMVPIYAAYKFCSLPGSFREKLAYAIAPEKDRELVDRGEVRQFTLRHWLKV

[17] = DRUGMATRIX: Sigma2 radioligand binding (ligand: [3H] Ifenprodil); type: cell membranes, Rattus norvegicus, Wistar, Brain, Membrane; conditions: Not Active = under 50% inhibition at 10 µM
[18] = target: Tyrosine-protein kinase Fyn (Homo sapiens, UniProt P06241); assay: biochemical; type: cell-based, Insect cells; conditions: insect cells
Sequence of Tyrosine-protein kinase Fyn (P06241 whole entry): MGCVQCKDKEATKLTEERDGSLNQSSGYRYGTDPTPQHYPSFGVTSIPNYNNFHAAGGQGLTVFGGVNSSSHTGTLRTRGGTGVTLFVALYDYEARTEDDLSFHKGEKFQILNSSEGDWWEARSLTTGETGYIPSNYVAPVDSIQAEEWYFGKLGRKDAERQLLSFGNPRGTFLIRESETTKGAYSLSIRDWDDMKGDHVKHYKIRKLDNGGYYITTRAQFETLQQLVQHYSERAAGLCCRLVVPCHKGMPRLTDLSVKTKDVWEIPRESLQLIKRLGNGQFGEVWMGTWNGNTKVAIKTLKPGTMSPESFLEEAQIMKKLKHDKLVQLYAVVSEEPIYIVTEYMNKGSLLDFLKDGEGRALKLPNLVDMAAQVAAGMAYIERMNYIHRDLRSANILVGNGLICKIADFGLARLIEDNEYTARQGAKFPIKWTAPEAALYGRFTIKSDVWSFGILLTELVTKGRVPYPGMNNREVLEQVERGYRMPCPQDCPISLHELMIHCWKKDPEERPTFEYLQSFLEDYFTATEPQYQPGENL

[19] = DRUGMATRIX: Glutamate, AMPA radioligand binding (ligand: [3H] AMPA); type: cell membranes, Rattus norvegicus, Wistar, Cerebral cortex, Membrane; conditions: Not Active = under 50% inhibition at 10 µM
[20] = target: Protein phosphatase 3 catalytic subunit alpha (Homo sapiens, UniProt Q08209); set-up: species or system Escherichia coli

Sequence of Insulin receptor (P15127 27-759 limits assumed): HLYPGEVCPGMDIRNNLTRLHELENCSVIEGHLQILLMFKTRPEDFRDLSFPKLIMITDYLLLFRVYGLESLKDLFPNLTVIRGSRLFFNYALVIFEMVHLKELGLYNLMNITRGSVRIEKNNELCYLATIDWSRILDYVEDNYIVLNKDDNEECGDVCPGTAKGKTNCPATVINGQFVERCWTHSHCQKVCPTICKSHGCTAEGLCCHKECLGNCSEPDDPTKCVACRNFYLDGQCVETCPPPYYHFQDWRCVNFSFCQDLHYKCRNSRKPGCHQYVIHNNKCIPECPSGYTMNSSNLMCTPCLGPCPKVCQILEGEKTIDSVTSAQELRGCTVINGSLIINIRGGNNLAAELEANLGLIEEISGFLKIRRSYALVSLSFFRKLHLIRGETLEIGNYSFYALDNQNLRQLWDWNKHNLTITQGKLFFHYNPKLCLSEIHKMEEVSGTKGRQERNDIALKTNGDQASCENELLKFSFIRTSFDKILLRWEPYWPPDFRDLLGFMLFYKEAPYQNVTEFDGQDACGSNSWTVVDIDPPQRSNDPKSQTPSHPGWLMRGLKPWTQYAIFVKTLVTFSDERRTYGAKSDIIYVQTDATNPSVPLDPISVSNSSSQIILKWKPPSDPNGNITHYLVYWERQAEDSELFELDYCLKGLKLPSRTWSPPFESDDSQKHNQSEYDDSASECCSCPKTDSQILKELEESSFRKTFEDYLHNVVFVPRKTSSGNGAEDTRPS
Sequence of Insulin receptor (P15127 764-1383 limits assumed): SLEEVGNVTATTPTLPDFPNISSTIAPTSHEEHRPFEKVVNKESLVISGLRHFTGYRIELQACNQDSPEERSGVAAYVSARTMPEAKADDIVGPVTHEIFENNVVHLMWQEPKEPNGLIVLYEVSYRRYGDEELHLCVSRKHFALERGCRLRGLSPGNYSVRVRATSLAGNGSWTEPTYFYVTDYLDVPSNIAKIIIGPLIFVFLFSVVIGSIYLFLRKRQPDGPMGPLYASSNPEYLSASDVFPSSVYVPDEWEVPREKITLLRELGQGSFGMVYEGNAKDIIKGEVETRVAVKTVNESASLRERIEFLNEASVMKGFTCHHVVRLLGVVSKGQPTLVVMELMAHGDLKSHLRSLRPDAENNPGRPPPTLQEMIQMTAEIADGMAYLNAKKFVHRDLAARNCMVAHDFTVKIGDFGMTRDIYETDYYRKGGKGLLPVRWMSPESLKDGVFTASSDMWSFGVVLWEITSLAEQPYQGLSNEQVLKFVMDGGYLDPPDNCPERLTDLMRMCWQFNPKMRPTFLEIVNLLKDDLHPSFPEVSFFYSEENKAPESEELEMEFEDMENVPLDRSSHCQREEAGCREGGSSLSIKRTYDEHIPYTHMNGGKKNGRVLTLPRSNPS

Nc1ccc(S(N)(=O)=O)cc1 [SULFANILAMIDE]
Not Active: IC50 [1] | IC50 [2] | IC50 [3] | IC50 [4] | IC50 [5] | Ki [5] | IC50 [6] | Ki [6] | IC50 [7] | Ki [7] | IC50 [8] | Ki [8] | IC50 [9] | Ki [9] | IC50 [10] | IC50 [11] | IC50 [12] | IC50 [13] | IC50 [14] | IC50 [15] | IC50 [16] | IC50 [17] | Ki [17] | IC50 [18] | IC50 [19] | Ki [19] | IC50 [20]

CC[C@H]1OC(=O)[C@H](C)[C@@H](O[C@H]2C[C@@](C)(OC)[C@@H](O)[C@H](C)O2)[C@H](C)[C@@H](O[C@@H]2O[C@H](C)C[C@H](N(C)C)[C@H]2O)[C@](C)(O)C[C@@H](C)/C(=N\OCOCCOC)[C@H](C)[C@@H](O)[C@]1(C)O [ROXITHROMYCIN]
Not Active: IC50 [1] | IC50 [2] | IC50 [3] | IC50 [4] | IC50 [5] | Ki [5] | IC50 [6] | Ki [6] | IC50 [7] | Ki [7] | IC50 [8] | Ki [8] | IC50 [9] | Ki [9] | IC50 [10] | IC50 [11] | IC50 [12] | IC50 [13] | IC50 [14] | IC50 [15] | IC50 [16] | IC50 [17] | Ki [17] | IC50 [18] | IC50 [19] | Ki [19] | IC50 [20]

COC(=O)c1ccc(O)cc1 [METHYLPARABEN]
Not Active: IC50 [1] | IC50 [2] | IC50 [3] | IC50 [4] | IC50 [5] | Ki [5] | IC50 [6] | Ki [6] | IC50 [7] | Ki [7] | IC50 [8] | Ki [8] | IC50 [9] | Ki [9] | IC50 [10] | IC50 [11] | IC50 [12] | IC50 [13] | IC50 [14] | IC50 [15] | IC50 [16] | IC50 [17] | Ki [17] | IC50 [18] | IC50 [19] | Ki [19] | IC50 [20]

NC(CO)(CO)CO [TROMETHAMINE]
Not Active: IC50 [1] | IC50 [2] | IC50 [3] | IC50 [4] | IC50 [5] | Ki [5] | IC50 [6] | Ki [6] | IC50 [7] | Ki [7] | IC50 [8] | Ki [8] | IC50 [9] | Ki [9] | IC50 [10] | IC50 [11] | IC50 [12] | IC50 [13] | IC50 [14] | IC50 [15] | IC50 [16] | IC50 [17] | Ki [17] | IC50 [18] | IC50 [19] | Ki [19] | IC50 [20]

CCOC(=O)[C@H](CCc1ccccc1)N[C@@H](C)C(=O)N1[C@H](C(=O)O)C[C@@H]2CCC[C@@H]21
Not Active: IC50 [1] | IC50 [2] | IC50 [3] | IC50 [4] | IC50 [5] | Ki [5] | IC50 [6] | Ki [6] | IC50 [7] | Ki [7] | IC50 [8] | Ki [8] | IC50 [9] | Ki [9] | IC50 [10] | IC50 [11] | IC50 [12] | IC50 [13] | IC50 [14] | IC50 [15] | IC50 [16] | IC50 [17] | Ki [17] | IC50 [18] | IC50 [19] | Ki [19] | IC50 [20]

COc1cc(C(=O)NC2CCCNC2)cc(OC)c1OC (configuration not stated) [TROXIPIDE]
Not Active: IC50 [1] | IC50 [2] | IC50 [3] | IC50 [4] | IC50 [5] | Ki [5] | IC50 [6] | Ki [6] | IC50 [7] | Ki [7] | IC50 [8] | Ki [8] | IC50 [9] | Ki [9] | IC50 [10] | IC50 [11] | IC50 [12] | IC50 [13] | IC50 [14] | IC50 [15] | IC50 [16] | IC50 [17] | Ki [17] | IC50 [18] | IC50 [19] | Ki [19] | IC50 [20]
